± gives the expanded uncertainty stated by the source.
Columns and labels:
[1] = Molar enthalpy of transition or fusion; settings: Crystal 2; DSC
[2] = molar heat capacity at constant pressure; settings: 101.33 kPa, Small sample (50 mg) DSC
[3] = molar enthalpy of transition or fusion; settings: 298.15 K; Crystal 2; DSC
[4] = DTA

O=C(Nc1ccc(Cl)cc1)Nc1ccc(Cl)c(Cl)c1 [N-(4-chlorophenyl)-N'-(3,4-dichlorophenyl)urea]
Molar enthalpy of transition or fusion [1]: 1.46 ± 0.0717 kcal/mol
molar heat capacity at constant pressure ([2]; 263.15 K, Crystal 2): 268.71 ± 5.5 J/K/mol
molar heat capacity at constant pressure ([2]; 265.15 K, Crystal 2): 269.88 ± 5.5 J/K/mol
molar heat capacity at constant pressure ([2]; 270.15 K, Crystal 2): 272.35 ± 5.5 J/K/mol
molar heat capacity at constant pressure ([2]; 275.15 K, Crystal 2): 274.29 ± 5.6 J/K/mol
molar heat capacity at constant pressure ([2]; 280.15 K, Crystal 2): 276.34 ± 5.6 J/K/mol
molar heat capacity at constant pressure ([2]; 285.15 K, Crystal 2): 278.5 ± 5.6 J/K/mol
molar heat capacity at constant pressure ([2]; 290.15 K, Crystal 2): 280.82 ± 5.6 J/K/mol
molar heat capacity at constant pressure ([2]; 295.15 K, Crystal 2): 282.87 ± 5.7 J/K/mol
molar heat capacity at constant pressure ([2]; 298.15 K, Crystal 2): 284.13 ± 5.7 J/K/mol
molar heat capacity at constant pressure ([2]; 300.15 K, Crystal 2): 285.18 ± 5.7 J/K/mol
molar heat capacity at constant pressure ([2]; 305.15 K, Crystal 2): 287.71 ± 5.7 J/K/mol
molar heat capacity at constant pressure ([2]; 310.15 K, Crystal 2): 290.49 ± 5.7 J/K/mol
molar heat capacity at constant pressure ([2]; 315.15 K, Crystal 2): 290.67 ± 5.7 J/K/mol
molar heat capacity at constant pressure ([2]; 320.15 K, Crystal 2): 294.23 ± 5.8 J/K/mol
molar heat capacity at constant pressure ([2]; 325.15 K, Crystal 2): 294.87 ± 5.8 J/K/mol
molar heat capacity at constant pressure ([2]; 330.15 K, Crystal 2): 297.95 ± 5.8 J/K/mol
molar heat capacity at constant pressure ([2]; 335.15 K, Crystal 2): 299.93 ± 5.8 J/K/mol
molar heat capacity at constant pressure ([2]; 340.15 K, Crystal 2): 302.05 ± 5.8 J/K/mol
molar heat capacity at constant pressure ([2]; 345.15 K, Crystal 2): 304.25 ± 5.9 J/K/mol
molar heat capacity at constant pressure ([2]; 350.15 K, Crystal 2): 307.35 ± 5.9 J/K/mol
molar heat capacity at constant pressure ([2]; 355.15 K, Crystal 2): 310.57 ± 5.9 J/K/mol
molar heat capacity at constant pressure ([2]; 360.15 K, Crystal 2): 313.61 ± 6 J/K/mol
molar heat capacity at constant pressure ([2]; 365.15 K, Crystal 2): 316.56 ± 6 J/K/mol
molar heat capacity at constant pressure ([2]; 370.15 K, Crystal 2): 318.53 ± 6 J/K/mol
molar heat capacity at constant pressure ([2]; 375.15 K, Crystal 2): 320.86 ± 6 J/K/mol
molar heat capacity at constant pressure ([2]; 380.15 K, Crystal 2): 322.77 ± 6.1 J/K/mol
molar heat capacity at constant pressure ([2]; 385.15 K, Crystal 2): 325.84 ± 6.1 J/K/mol
molar heat capacity at constant pressure ([2]; 390.15 K, Crystal 2): 328.48 ± 6.1 J/K/mol
molar heat capacity at constant pressure ([2]; 395.15 K, Crystal 2): 330.98 ± 6.2 J/K/mol
molar heat capacity at constant pressure ([2]; 400.15 K, Crystal 2): 333.62 ± 6.2 J/K/mol
molar heat capacity at constant pressure ([2]; 405.15 K, Crystal 2): 335.55 ± 6.2 J/K/mol
molar heat capacity at constant pressure ([2]; 410.15 K, Crystal 2): 339.3 ± 6.2 J/K/mol
molar heat capacity at constant pressure ([2]; 475.15 K, Crystal 1): 432.35 ± 18 J/K/mol
molar heat capacity at constant pressure ([2]; 480.15 K, Crystal 1): 436.61 ± 19 J/K/mol
molar heat capacity at constant pressure ([2]; 485.15 K, Crystal 1): 444.02 ± 19 J/K/mol
molar heat capacity at constant pressure ([2]; 490.15 K, Crystal 1): 452.78 ± 19 J/K/mol
molar heat capacity at constant pressure ([2]; 495.15 K, Crystal 1): 464.93 ± 20 J/K/mol
molar enthalpy of transition or fusion [3]: 43.5 ± 1.12 kcal/mol
Normal melting temperature ([4]; Crystal 1): 254.4 ± 0.9 °C
Triple point temperature ([4]; Crystal 2): 428 ± 2 K

Source: the NIST ThermoML archive (doi:10.1016/j.jct.2009.11.012)
